Assay results published in ChEMBL document CHEMBL3639354, “(EN) 3-sulfonyl-pyrazolo[1,5-a] pyrimidines / antagonists of serotonin 5-HT6 receptors, methods for the production and the use thereof” (2013).

Molecular target: 5-hydroxytryptamine receptor 6 (Homo sapiens, UniProt P50406)
Assay: Functional Assay: Functional assay using 5-HT6 receptors.

5-hydroxytryptamine receptor 6, sequence (P50406 whole entry): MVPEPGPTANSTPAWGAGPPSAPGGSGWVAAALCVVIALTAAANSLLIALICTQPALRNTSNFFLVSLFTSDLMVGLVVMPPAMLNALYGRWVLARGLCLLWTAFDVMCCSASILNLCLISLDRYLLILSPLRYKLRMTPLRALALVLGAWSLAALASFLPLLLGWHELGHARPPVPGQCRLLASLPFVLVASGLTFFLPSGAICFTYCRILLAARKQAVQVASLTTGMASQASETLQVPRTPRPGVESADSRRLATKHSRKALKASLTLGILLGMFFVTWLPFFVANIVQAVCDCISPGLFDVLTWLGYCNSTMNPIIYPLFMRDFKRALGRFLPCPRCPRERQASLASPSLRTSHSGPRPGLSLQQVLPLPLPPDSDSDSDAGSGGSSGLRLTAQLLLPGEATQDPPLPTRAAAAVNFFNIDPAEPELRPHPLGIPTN

IC50: 0.046 µM
Structure (SMILES): CSc1nn2c(C)cc(C)nc2c1S(=O)(=O)c1ccc(F)c(Cl)c1
